The nature of this assay: Lipid-absorption suppressive activity: plasma triglyceride after oral salad oil tolerance. In kind it is in vivo, male ddy line mice. The procedure: Orbital blood collection from male ddy line mice of six weeks old (six animals per group) was carried out, and then 10 mL/kg of water or 0.1 g/kg of aqueous actein solution was orally administrated to each of them. After 30 minutes, 10 mL/kg of salad oil was orally administrated, orbital blood collection was performed after 180 minutes again, and blood plasma was separated to measure the triglyceride level.
Orbital blood collection from male ddy line mice of six weeks old (six animals per group) was carried out, and then 10 mL/kg of water or 0.2 g/kg or 1.0 g/kg of aqueous solution of Black cohosh extract (Example 1) was orally administrated. After 30 minutes, 10 mL/kg of salad oil was orally administrated, orbital blood collection was performed after 180 minutes again, and blood plasma was separated to measure the triglyceride level.

Structures are written as SMILES.

Regarding `CC(=O)O[C@@H]1C[C@@]23C[C@@]24CC[C@H](O[C@@H]2OC[C@@H](O)[C@H](O)[C@H]2O)C(C)(C)[C@@H]4CC[C@H]3[C@]2(C)C[C@@H]3O[C@]4(C[C@@H](C)[C@@H]3[C@@]12C)O[C@H](O)[C@@]1(C)O[C@@H]41` [actein], the “Triglyceride level in blood plasma, before salad oil administration” value (0.1 g/kg actein oral group, baseline blood collected before dosing, mean ± SD, six animals) was determined as 110.4 ± 22.2 mg/dL. Also, the “Triglyceride level in blood plasma, after 180 minutes” value (0.1 g/kg actein oral, 30 min before 10 mL/kg salad oil, 180 min after oil, mean ± SD) turned out to be 248.6 ± 27.8 mg/dL. Also, the “Triglyceride level in blood plasma after 180 minutes of salad oil tolerance (in words)” value (0.1 g/kg actein oral, vs water group) is listed as “significantly suppressed”.

The record behind these values is patent US20060210659A1, “Anti-obesity agent” (priority 2005, published 2006).
